# Measurements as given in the supplement of paper PMC10307832.
# Columns and labels:
# Assay in all cases: relative viability (nuclei count vs DMSO), 5 days (fraction); higher = more cells survive
# BEN = system: BEN
# Procedure, shortened: (§1)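 Relative viability equals treated-well nuclei counts divided by vehicle-well nuclei counts. Counts came from 4× images of lung cancer cell lines grown in 1536-well plates for 5 days after pin-tool dosing on the day after seeding. Dosing used one drug alone or a fixed anchor-drug dose plus five library-drug doses (not always all listed) in √10 steps, and values are medians of duplicate plates.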
# ChaGo-K-1 = system: ChaGo-K-1
# Procedure, shortened: as §1
# HCC-15 = system: HCC-15
# Procedure, shortened: as §1
# HCC-78 = system: HCC-78
# Procedure, shortened: as §1
# LC-2-ad = system: LC-2-ad
# Procedure, shortened: as §1
# LCLC-97TM1 = system: LCLC-97TM1
# Procedure, shortened: as §1
# LK-2 = system: LK-2
# Procedure, shortened: as §1
# LU99A = system: LU99A
# Procedure, shortened: as §1
# LXF-289 = system: LXF-289
# Procedure, shortened: as §1
# NCI-H1651 = system: NCI-H1651
# Procedure, shortened: as §1
# NCI-H1666 = system: NCI-H1666
# Procedure, shortened: as §1
# NCI-H1944 = system: NCI-H1944
# Procedure, shortened: as §1
# NCI-H2087 = system: NCI-H2087
# Procedure, shortened: as §1
# NCI-H322M = system: NCI-H322M
# Procedure, shortened: as §1
# NCI-H358 = system: NCI-H358
# Procedure, shortened: as §1
# NCI-H596 = system: NCI-H596
# Procedure, shortened: as §1
# NCI-H650 = system: NCI-H650
# Procedure, shortened: as §1
# NCI-H661 = system: NCI-H661
# Procedure, shortened: as §1
# NCI-H838 = system: NCI-H838
# Procedure, shortened: as §1
# PC-3 [JPC-3] = system: PC-3 [JPC-3]
# Procedure, shortened: as §1
# SK-MES-1 = system: SK-MES-1
# Procedure, shortened: as §1
# UMC-11 = system: UMC-11
# Procedure, shortened: as §1
structure (smiles),measurement,setting,value
CC1(C)CCC(c2ccc(Cl)cc2)=C(CN2CCN(c3ccc(C(=O)NS(=O)(=O)c4ccc(N[C@H](CCN5CCOCC5)CSc5ccccc5)c(S(=O)(=O)C(F)(F)F)c4)cc3)CC2)C1 [Navitoclax] + CS(=O)(=O)N1CCN(Cc2cc3nc(-c4cccc5[nH]ncc45)nc(N4CCOCC4)c3s2)CC1 [Pictilisib] (partner 1 µM),relative viability,BEN; first compound 0.005 µM,0.548
same,relative viability,BEN; first compound 0.01581 µM,0.678
same,relative viability,BEN; first compound 0.05 µM,0.625
same,relative viability,BEN; first compound 0.1581 µM,0.602
same,relative viability,BEN; first compound 0.5 µM,0.364
same,relative viability,ChaGo-K-1; first compound 0.005 µM,0.645
same,relative viability,ChaGo-K-1; first compound 0.01581 µM,0.799
same,relative viability,ChaGo-K-1; first compound 0.05 µM,0.648
same,relative viability,ChaGo-K-1; first compound 0.1581 µM,0.641
same,relative viability,ChaGo-K-1; first compound 0.5 µM,0.667
same,relative viability,HCC-15; first compound 0.005 µM,0.733
same,relative viability,HCC-15; first compound 0.01581 µM,0.769
same,relative viability,HCC-15; first compound 0.05 µM,0.614
same,relative viability,HCC-15; first compound 0.1581 µM,0.726
same,relative viability,HCC-15; first compound 0.5 µM,0.667
same,relative viability,HCC-78; first compound 0.005 µM,0.184
same,relative viability,HCC-78; first compound 0.01581 µM,0.261
same,relative viability,HCC-78; first compound 0.1581 µM,0.232
same,relative viability,HCC-78; first compound 0.5 µM,0.205
same,relative viability,LC-2-ad; first compound 0.005 µM,0.614
same,relative viability,LC-2-ad; first compound 0.01581 µM,0.654
same,relative viability,LC-2-ad; first compound 0.05 µM,0.324
same,relative viability,LC-2-ad; first compound 0.1581 µM,0.447
same,relative viability,LC-2-ad; first compound 0.5 µM,0.38
same,relative viability,LCLC-97TM1; first compound 0.005 µM,0.255
same,relative viability,LCLC-97TM1; first compound 0.01581 µM,0.146
same,relative viability,LCLC-97TM1; first compound 0.05 µM,0.193
same,relative viability,LCLC-97TM1; first compound 0.1581 µM,0.187
same,relative viability,LCLC-97TM1; first compound 0.5 µM,0.153
same,relative viability,LK-2; first compound 0.005 µM,0.612
same,relative viability,LK-2; first compound 0.01581 µM,0.559
same,relative viability,LK-2; first compound 0.05 µM,0.536
same,relative viability,LK-2; first compound 0.1581 µM,0.657
same,relative viability,LK-2; first compound 0.5 µM,0.511
same,relative viability,LU99A; first compound 0.005 µM,0.361
same,relative viability,LU99A; first compound 0.01581 µM,0.35
same,relative viability,LU99A; first compound 0.05 µM,0.336
same,relative viability,LU99A; first compound 0.1581 µM,0.34
same,relative viability,LU99A; first compound 0.5 µM,0.325
same,relative viability,LXF-289; first compound 0.005 µM,0.821
same,relative viability,LXF-289; first compound 0.01581 µM,0.872
same,relative viability,LXF-289; first compound 0.05 µM,0.737
same,relative viability,LXF-289; first compound 0.1581 µM,0.799
same,relative viability,LXF-289; first compound 0.5 µM,0.768
same,relative viability,NCI-H1651; first compound 0.005 µM,0.592
same,relative viability,NCI-H1651; first compound 0.01581 µM,0.687
same,relative viability,NCI-H1651; first compound 0.1581 µM,0.561
same,relative viability,NCI-H1651; first compound 0.5 µM,0.559
same,relative viability,NCI-H1666; first compound 0.005 µM,0.562
same,relative viability,NCI-H1666; first compound 0.01581 µM,0.609
same,relative viability,NCI-H1666; first compound 0.05 µM,0.503
same,relative viability,NCI-H1666; first compound 0.1581 µM,0.394
same,relative viability,NCI-H1666; first compound 0.5 µM,0.475
same,relative viability,NCI-H1944; first compound 0.005 µM,0.336
same,relative viability,NCI-H1944; first compound 0.01581 µM,0.371
same,relative viability,NCI-H1944; first compound 0.05 µM,0.374
same,relative viability,NCI-H1944; first compound 0.1581 µM,0.357
same,relative viability,NCI-H1944; first compound 0.5 µM,0.397
same,relative viability,NCI-H2087; first compound 0.005 µM,0.806
same,relative viability,NCI-H2087; first compound 0.01581 µM,0.976
same,relative viability,NCI-H2087; first compound 0.05 µM,0.54
same,relative viability,NCI-H2087; first compound 0.1581 µM,1.02
same,relative viability,NCI-H2087; first compound 0.5 µM,0.887
same,relative viability,NCI-H322M; first compound 0.005 µM,0.485
same,relative viability,NCI-H322M; first compound 0.01581 µM,0.526
same,relative viability,NCI-H322M; first compound 0.05 µM,0.565
same,relative viability,NCI-H322M; first compound 0.1581 µM,0.516
same,relative viability,NCI-H322M; first compound 0.5 µM,0.562
same,relative viability,NCI-H358; first compound 0.005 µM,0.347
same,relative viability,NCI-H358; first compound 0.01581 µM,0.352
same,relative viability,NCI-H358; first compound 0.05 µM,0.307
same,relative viability,NCI-H358; first compound 0.1581 µM,0.379
same,relative viability,NCI-H358; first compound 0.5 µM,0.336
same,relative viability,NCI-H596; first compound 0.005 µM,0.405
same,relative viability,NCI-H596; first compound 0.01581 µM,0.399
same,relative viability,NCI-H596; first compound 0.05 µM,0.398
same,relative viability,NCI-H596; first compound 0.1581 µM,0.308
same,relative viability,NCI-H596; first compound 0.5 µM,0.218
same,relative viability,NCI-H650; first compound 0.005 µM,0.765
same,relative viability,NCI-H650; first compound 0.01581 µM,0.948
same,relative viability,NCI-H650; first compound 0.05 µM,0.869
same,relative viability,NCI-H650; first compound 0.1581 µM,0.972
same,relative viability,NCI-H650; first compound 0.5 µM,0.448
same,relative viability,NCI-H661; first compound 0.005 µM,0.48
same,relative viability,NCI-H661; first compound 0.01581 µM,0.443
same,relative viability,NCI-H661; first compound 0.05 µM,0.379
same,relative viability,NCI-H661; first compound 0.1581 µM,0.406
same,relative viability,NCI-H661; first compound 0.5 µM,0.465
same,relative viability,NCI-H838; first compound 0.005 µM,0.435
same,relative viability,NCI-H838; first compound 0.01581 µM,0.571
same,relative viability,NCI-H838; first compound 0.05 µM,0.541
same,relative viability,NCI-H838; first compound 0.1581 µM,0.494
same,relative viability,NCI-H838; first compound 0.5 µM,0.486
same,relative viability,PC-3 [JPC-3]; first compound 0.005 µM,0.648
same,relative viability,PC-3 [JPC-3]; first compound 0.01581 µM,0.701
same,relative viability,PC-3 [JPC-3]; first compound 0.05 µM,0.87
same,relative viability,PC-3 [JPC-3]; first compound 0.1581 µM,0.678
same,relative viability,PC-3 [JPC-3]; first compound 0.5 µM,0.75
same,relative viability,SK-MES-1; first compound 0.005 µM,0.458
same,relative viability,SK-MES-1; first compound 0.01581 µM,0.48
same,relative viability,SK-MES-1; first compound 0.05 µM,0.355
same,relative viability,SK-MES-1; first compound 0.1581 µM,0.321
same,relative viability,SK-MES-1; first compound 0.5 µM,0.334
same,relative viability,UMC-11; first compound 0.005 µM,0.743
same,relative viability,UMC-11; first compound 0.01581 µM,0.809
same,relative viability,UMC-11; first compound 0.1581 µM,0.741
same,relative viability,UMC-11; first compound 0.5 µM,0.516
